Here are results for 62 molecules from a melting point compilation (Tetko et al.; mined from patent text by program, amines drawn as free bases though some values may be those of a salt).

`COC(=O)Cc1cc(C(=O)c2ccc(C#Cc3ccccc3)c(N)c2)sc1-c1ccccc1` returned a melting point of 146 to 148 °C. As for `NS(=O)(=O)c1ccc2c(c1)CNC(C1CCCCC1)N2` (configuration not stated), the melting point lay within 178 to 180 °C. Turning to `O=C(O)COc1ccc(OCC(=O)O)c(NC(=O)c2ccc(OCCCCc3ccccc3)cc2)c1`, the melting point lay within 211 to 214 °C. To `CC(=O)Nc1ccccc1OC(CCc1ccc(Cl)cc1)Cn1ccnc1` (configuration not stated) belongs 151 to 152 °C; to `Cc1c(Cc2cccc(C(F)(F)F)c2)sc2c(-c3cccc(C(=O)NCCO)c3)cccc12`, 140 to 145 °C; to `CC(C)(C)c1cc2ccccc2[nH]1`, 71 to 72 °C. `O=C(O)c1oc2ccc(Cl)cc2c1-c1ccccc1C(F)(F)F`: the melting point fell in the range of 71 to 72 °C. To `c1ccc(CN2CCN(Cc3n[nH]c4c3CCc3ccccc3-4)CC2)cc1` belongs 158 to 160 °C. `Nc1ccc2nc(-c3cccnc3)nn2c1` gave a melting point of 230 °C. In the case of `Cc1cc(C(O)=S)cc(N)c1Cl` it was 225 °C; in that of `CC(C)(C)[Si](C)(C)O[C@@H]1c2cc(Br)ccc2-c2ccc(Br)cc2[C@H]1O[Si](C)(C)C(C)(C)C` (relative stereo), 162 to 163 °C. In the case of `Nc1ccc(S(=O)(=O)c2cc(Cl)nc(N3CCCC3)c2)cc1`, the melting point lay in the range of 225 to 226 °C. In the case of `CCc1cccc(CC(=O)O)c1OCCCc1cn(-c2ccc(C(F)(F)F)nn2)nc1C(CC)CC` it was 93 to 94 °C; in that of `O=C(Nc1cc(-c2ccnc3c(C(=O)c4cccs4)cnn23)ccc1F)c1c(F)cccc1F`, 198 to 200 °C. To `c1ccc(Cc2ncc(-c3ccc4cc(OCc5nnn[nH]5)ccc4c3)o2)cc1` belongs 227 to 228 °C; to `CC(C)c1cc(C(=O)Nc2ccc(C(=O)O)c(Cl)c2)oc1C(C)C`, 152 to 153 °C; to `Clc1ncc(-c2ccccc2)o1`, 34 °C. With `CC1=NC(=NOC(=O)N(C)C)SC1(C)C`, the melting point fell in the range of 108 to 110 °C. In the case of `OCCc1ccc(CCO)cc1` it was 83 to 84 °C; in that of `CCOC(=O)c1cc(SC#N)c(Br)cc1N`, 149 to 150 °C; in that of `Cc1cccc(-c2ccccc2)c1C(=O)c1sc(Nc2ccc(N3CCOCC3)cc2)nc1N`, 125 to 135 °C.

The molecule `Fc1ccc(-n2nc(-c3cccc(C(F)(F)F)c3)c3ncccc3c2=S)cc1` came in with a melting point of 214 to 215 °C.

As to `CCOC(=O)C1CCc2c(oc3cc(NC(C)=O)ccc23)C1` (configuration not stated), the melting point was in the range of 115 to 116 °C. In the case of `CCCN(CCC)CCc1ccc(OC)c(C(=O)O)c1OC` it was 174 to 177 °C; in that of `CC(C)=CCOc1ccc(C(=O)C=Cc2ccc(C(C)(C)C)cc2)c(OCC(=O)O)c1`, 136 to 139 °C. For the molecule `CC(C)(O)[C@@H](N)c1ccc2ccccc2c1`, the melting point was in the range of 77 to 78 °C.

Take `O=S1(=O)N=CN(C2CCCCCC2)c2cc(Cl)ccc21`: the melting point lay within 209 to 211 °C. To `CCCCc1nn(-c2cc([N+](=O)[O-])ccc2Cl)c(=O)n1Cc1ccc(-c2cc(CCC)ccc2S(=O)(=O)NC(C)(C)C)cc1F` belongs 84 to 86 °C; to `COc1ccc(C(=O)N2c3ccccc3C(Nc3ccc(Br)cc3)CC2C)cc1OC` (configuration not stated), 173 to 175 °C.

`Cc1cc(OCc2cccc(C(=O)O)c2)c([N+](=O)[O-])cc1S(=O)(=O)N(C)C` displayed a melting point of 220 to 221 °C. In the case of `COc1cc2ncnc(N3CCN(C(=S)NCc4ccc(Br)cc4)CC3)c2cc1OC` it was 217 to 218 °C. In the case of `Cc1nc2c(N)nc3ccccc3c2n1CCCOCC#Cc1ccccc1` it was 160 to 162 °C. In the case of `C[C@@H]1CN(C(=O)OC(C)(C)C)C[C@H]2Cc3cc(F)cnc3N21` it was 56.6 to 58.4 °C.

`N=C(NC(=O)Nc1ccccc1[N+](=O)[O-])c1ccccc1` had a melting point of 144 to 146 °C.

`CN1C[C@@H]2C[C@H]1CN2C(=O)N1CCC(c2[nH]nc3c2C(=O)c2c(NC(=O)NN4CCOCC4)cccc2-3)CC1` came in with a melting point of 224 to 225 °C. In the case of `O=c1c2ccccc2nnn1CCCCl` it was 69 °C; in that of `Cn1cc(CN2C(=O)C3(COc4cc5c(cc43)OCCO5)c3ccccc32)ccc1=O` (configuration not stated), 205 to 207 °C. Molecule `CCN(CC)C(=O)n1cnc(S(=O)(=O)C(F)F)n1` displayed a melting point of 58 to 59 °C. Consider `Cc1ccc(-n2cc(C)cc2-c2ccc(S(N)(=O)=O)cc2)cc1`, for which the melting point was in the range of 144 to 147 °C.

`CC(=O)Oc1cc(Br)cc2c1OC(C)(C)C2` gave a melting point of 76 °C. To `CN(C(=O)C1CC1)c1cccc(-c2ccnc3c(C(=O)c4ccccc4)cnn23)c1` belongs 168 to 170 °C. To `NC1Cc2cccc3c2C(C1)CN3C(=O)c1ccccc1` (configuration not stated) belongs 118 to 120 °C.

In the case of `Cc1oncc1C(=O)N1CCCCC1`, the melting point lay in the range of 40 to 43 °C. For `C#Cc1ccnc(-c2cc([N+](=O)[O-])c(-c3cc(C#C)ccn3)cc2N)c1`, the melting point fell in the range of 154 to 160 °C.

The molecule `COc1cc(N)c(Cl)cc1C(=O)NC1CCN(CC2CCN(C(=O)c3ccccc3)CC2)CC1` had a melting point of 114 to 116 °C. To `CCCOCCOc1ccc(COc2ccc3c(c2)C=C(C(=O)O)CCS3(=O)=O)cc1` belongs 244 to 250 °C; to `O=C([O-])C12CC[N+](Cc3ccc4c(c3)Nc3nccnc3S4)(CC1)CC2`, 229 to 230 °C. `O=C(NCc1noc(-c2ccc(CN3CCCCCC3)s2)n1)c1ccccc1`: the melting point lay in the range of 79 to 81 °C.

For the molecule `Cc1c(NC(=O)c2ccc(C3CCCCC3)cc2)ccc2cc(CN3CCCC3)cnc12`, the melting point lay in the range of 178 to 179 °C. In the case of `CC(C)(C)OC(=O)c1cnc(F)cn1` it was 26.5 to 28.1 °C; in that of `NS(=O)(=O)NCCc1ccccc1`, 61.8 to 62 °C; in that of `CCCCNC(=O)Nc1nc2cc(CN3CCN(C(c4ccccc4)c4ccccc4)CC3)ccc2n1C`, 196 °C. For `CC(=O)NCCC1CCc2ccc3nc(CO)oc3c21` (configuration not stated), the melting point lay within 132 to 134 °C.

The molecule `CCOC(=O)c1cc(NCc2ccccc2)c(NC2CCCCC2)c(S(N)(=O)=O)c1` showed a melting point of 176 to 177 °C. In the case of `CC(=O)n1ccc(-c2ccc(C(=O)N3Cc4cccn4Cc4ccccc43)cc2)n1`, the melting point was in the range of 192 to 194 °C. Regarding `Oc1cccc(C#Cc2ccc3ccc(Br)cc3n2)c1`, the melting point fell in the range of 197 to 199 °C. For the molecule `Cc1nc(NN)nnc1-c1ccccc1`, the melting point was in the range of 136 to 138 °C. `CCOC(=O)c1ccc(-c2nc(O)c(C)s2)cc1` came in with a melting point of 207 to 208 °C. In the case of `CC(C)S(=O)(=O)n1c(N)nc2ccc(C(O)(CC(=O)N(C)C)c3ccccc3)cc21` (configuration not stated) it was 209 to 210 °C; in that of `COc1ccc(-c2nc(C(=O)C(F)(F)F)[nH]c2-c2ccc(OC)cc2)cc1`, 191 to 192 °C. In turn, `COC(=O)c1ccc2[nH]c3cnc(C(=O)OC)c(C)c3c2c1` gave a melting point of 199 to 204 °C. In the case of `COc1cccc(OC)c1C(=O)Oc1cc([N+](=O)[O-])cc([N+](=O)[O-])c1O` it was 217 to 218 °C.

One may read the melting point as the temperature, or range, at which the solid turns liquid.
